Values of other authors as cited in patent US6439069B1, “Method and apparatus for detecting subterranean termites” (priority 1999, dated 2002).

Experiments:
subterranean termites = conditions: for 20-30 years or more
foraging termites = conditions: food sources impregnated with 0.5% of the substance

| Compound | control of subterranean termites (subterranean termites) [%] | palatability of impregnated food source (foraging termites) |
| --- | --- | --- |
| ClC1=C(Cl)C2(Cl)C3C(Cl)C(Cl)CC3C1(Cl)C2(Cl)Cl (stereo not drawn) [chlordane] | 100 | – |
| O.O.O.O.O=BOB1OB(OB=O)OB2OB([O-])OB([O-])OB(O1)O2.[Na+].[Na+] [disodium octaborate tetrahydrate] | – | acceptably palatable |
| ClC1=C(Cl)C2(Cl)C3C(Cl)C=CC3C1(Cl)C2(Cl)Cl (stereo not drawn) [heptachlor] | 100 | – |
